The results in this text go back to patent US11780830B2, “Triazolone derivatives or salts thereof and pharmaceutical compositions comprising the same” (YUHAN CORPORATION, priority 2018, dated 2023).

What is called IC50 is the concentration that inhibits the measured activity by half.

Common to all, as to assay type: biochemical
The target in experiment [1] is T1, recombinant human DAO (diamine oxidase) (Homo sapiens, UniProt P19801).
T1 construct: purchased R&D systems
T1 sequence (P19801 20-751): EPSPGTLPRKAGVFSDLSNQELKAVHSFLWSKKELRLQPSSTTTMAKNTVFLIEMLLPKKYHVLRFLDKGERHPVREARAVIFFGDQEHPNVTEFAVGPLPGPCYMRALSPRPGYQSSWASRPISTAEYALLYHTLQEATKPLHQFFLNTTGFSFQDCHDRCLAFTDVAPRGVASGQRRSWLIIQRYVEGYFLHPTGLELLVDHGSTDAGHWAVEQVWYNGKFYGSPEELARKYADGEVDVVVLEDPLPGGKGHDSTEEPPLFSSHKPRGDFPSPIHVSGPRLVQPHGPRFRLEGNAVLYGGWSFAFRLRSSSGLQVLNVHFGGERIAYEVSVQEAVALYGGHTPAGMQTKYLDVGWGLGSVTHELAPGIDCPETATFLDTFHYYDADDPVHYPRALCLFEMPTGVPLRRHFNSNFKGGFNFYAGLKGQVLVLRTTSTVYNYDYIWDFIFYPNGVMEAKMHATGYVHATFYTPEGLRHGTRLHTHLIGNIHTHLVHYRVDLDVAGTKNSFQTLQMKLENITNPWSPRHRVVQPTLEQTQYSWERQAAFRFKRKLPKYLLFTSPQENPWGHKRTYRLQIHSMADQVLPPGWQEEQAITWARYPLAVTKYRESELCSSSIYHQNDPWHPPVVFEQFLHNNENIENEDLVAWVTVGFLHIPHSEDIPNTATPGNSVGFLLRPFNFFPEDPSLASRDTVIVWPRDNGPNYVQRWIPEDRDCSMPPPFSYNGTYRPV
The experiment is described as follows: Activity on recombinant human DAO, method similar to the VAP-1 assay. To be noted: substrate 1 mM putrescine; read-out: Inhibitory Activity (IC50, nM) DAO. The gist of the method: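 Inhibition of recombinant human diamine oxidase (DAO, R&D systems) was assessed by the same approach as the VAP-1 assay, using 1 mM putrescine as substrate. Hydrogen peroxide formed was detected through an HRP-coupled Amplex Red reaction yielding fluorescent resorufin, read at 544 nm excitation and 590 nm emission. IC50 values came from four-parameter logistic fitting in GraphPad Prism.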

A further experiment deals with T2, recombinant human VAP-1 (Homo sapiens, UniProt Q16853).
T2 construct: purchased R&D systems
T2 sequence (Q16853 1-763): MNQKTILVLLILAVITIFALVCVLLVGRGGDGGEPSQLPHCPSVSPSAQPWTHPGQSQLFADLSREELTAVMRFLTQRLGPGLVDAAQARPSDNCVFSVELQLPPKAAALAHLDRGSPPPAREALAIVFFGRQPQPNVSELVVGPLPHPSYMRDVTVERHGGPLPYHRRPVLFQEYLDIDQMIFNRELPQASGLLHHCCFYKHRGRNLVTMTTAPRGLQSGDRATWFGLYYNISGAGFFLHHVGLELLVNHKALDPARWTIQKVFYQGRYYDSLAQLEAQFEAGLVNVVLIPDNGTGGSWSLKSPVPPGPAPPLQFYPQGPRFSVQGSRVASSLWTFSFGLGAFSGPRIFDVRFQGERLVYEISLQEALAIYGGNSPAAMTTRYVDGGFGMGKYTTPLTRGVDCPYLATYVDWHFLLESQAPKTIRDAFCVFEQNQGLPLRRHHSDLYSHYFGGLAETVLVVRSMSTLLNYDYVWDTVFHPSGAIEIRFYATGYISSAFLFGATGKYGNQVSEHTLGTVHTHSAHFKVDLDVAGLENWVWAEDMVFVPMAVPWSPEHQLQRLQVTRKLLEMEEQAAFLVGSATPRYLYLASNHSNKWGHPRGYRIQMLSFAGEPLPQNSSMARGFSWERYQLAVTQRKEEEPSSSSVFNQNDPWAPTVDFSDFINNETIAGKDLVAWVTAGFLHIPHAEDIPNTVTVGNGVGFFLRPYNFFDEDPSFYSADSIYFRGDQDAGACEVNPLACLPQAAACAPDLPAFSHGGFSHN
In words: Activity on recombinant human VAP-1, HRP-coupled Amplex Red hydrogen peroxide assay. To be noted: substrate 1 mM benzylamine; compound incubated with enzyme at 37° C. for 30 minutes; pH 7.4; read-out: Inhibitory Activity (IC50, nM) human VAP-1. The procedure, abridged: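 Enzyme in 50 mM sodium phosphate pH 7.4 preincubated with compound 30 min at 37 °C, then 1 mM benzylamine, 200 µM Amplex Red and 1 U/mL HRP added. H2O2-derived resorufin fluorescence (ex 544/em 590 nm) followed over 1–2 h; signal-rate decrease versus DMSO control, 8-point curve, four-parameter logistic IC50.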

The target of experiment [2] is T3, recombinant human MAO-A (monoamine oxidase-A) (Homo sapiens, UniProt P21397).
T3 construct: purchased Sigma-Aldrich
T3 sequence (P21397 1-527): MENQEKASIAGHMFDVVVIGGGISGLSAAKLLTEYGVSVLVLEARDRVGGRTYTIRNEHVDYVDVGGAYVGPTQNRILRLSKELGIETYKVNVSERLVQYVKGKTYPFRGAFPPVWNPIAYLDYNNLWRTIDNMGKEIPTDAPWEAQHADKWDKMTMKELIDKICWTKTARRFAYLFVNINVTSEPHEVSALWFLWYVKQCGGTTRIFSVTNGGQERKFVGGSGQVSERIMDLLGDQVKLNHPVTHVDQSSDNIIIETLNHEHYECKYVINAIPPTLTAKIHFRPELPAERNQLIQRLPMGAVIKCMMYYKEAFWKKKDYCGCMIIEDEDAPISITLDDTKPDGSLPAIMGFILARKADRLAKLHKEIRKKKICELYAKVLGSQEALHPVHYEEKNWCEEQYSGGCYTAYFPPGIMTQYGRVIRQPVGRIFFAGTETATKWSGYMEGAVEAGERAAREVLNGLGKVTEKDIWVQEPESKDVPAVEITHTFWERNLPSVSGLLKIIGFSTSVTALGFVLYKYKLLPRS
In words: Activity on recombinant human MAO-A, method similar to the VAP-1 assay. To be noted: substrate 0.5 mM tyramine; read-out: Inhibitory Activity (IC50, nM) MAO-A. The gist of the method:
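Enzyme preincubated with compound 30 min at 37 °C in 50 mM sodium phosphate pH 7.4, final DMSO below 1%. Substrate was 0.5 mM tyramine for MAO-A and 1 mM benzylamine for MAO-B, with 200 uM Amplex Red and 1 U/mL HRP. H2O2-coupled resorufin fluorescence (ex 544/em 590) followed over 1–2 h; 8-point 4-parameter IC50.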

Experiment [3] deals with T4, recombinant human MAO-B (monoamine oxidase-B) (Homo sapiens, UniProt P27338).
T4 construct: purchased Sigma-Aldrich
T4 sequence (P27338 1-520): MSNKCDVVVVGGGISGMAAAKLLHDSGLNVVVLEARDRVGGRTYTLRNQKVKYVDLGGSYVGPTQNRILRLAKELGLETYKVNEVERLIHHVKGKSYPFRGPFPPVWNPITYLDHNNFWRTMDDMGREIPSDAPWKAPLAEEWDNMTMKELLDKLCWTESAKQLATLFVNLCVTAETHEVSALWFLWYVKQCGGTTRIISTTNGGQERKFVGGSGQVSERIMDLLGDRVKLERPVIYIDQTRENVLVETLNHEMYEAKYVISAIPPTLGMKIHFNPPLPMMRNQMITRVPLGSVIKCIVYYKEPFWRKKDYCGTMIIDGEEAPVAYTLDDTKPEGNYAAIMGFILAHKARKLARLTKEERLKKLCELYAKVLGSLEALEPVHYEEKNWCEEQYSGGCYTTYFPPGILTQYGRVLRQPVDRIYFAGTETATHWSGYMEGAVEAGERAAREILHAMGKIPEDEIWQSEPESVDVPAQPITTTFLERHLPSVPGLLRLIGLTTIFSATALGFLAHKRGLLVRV
In words: Activity on recombinant human MAO-B, method similar to the VAP-1 assay. To be noted: substrate 1 mM benzylamine; read-out: Inhibitory Activity (IC50, nM) MAO-B. The protocol:
The compounds according to the present technology were evaluated in terms of activity on recombinant human VAP-1 (R&D systems) by measuring the level of hydrogen peroxide in horseradish peroxidase (HRP)-coupled reaction using Amplex Red Hydrogen Peroxide Assay Kit (Molecular Probes, Invitrogen, USA). The experiment was carried out at room temperature using benzylamine as a substrate. In the HRP-coupled reaction, hydrogen peroxide oxidation of 10-acetyl-3,7-dihydroxyphenoxazine (Amplex Red reagent) produces resorufin, which is a highly fluorescent compound. Briefly, the test compound was dissolved in dimethyl sulfoxide (DMSO) at a concentration of 20 mM. The dose-response assessment was made by 1:3 serial dilution in DMSO, thereby creating an 8 point curve. The concentration of the upper part was controlled according to the efficacy of the compounds, followed by dilution with a reaction buffer solution to obtain a final DMSO concentration less than 1%. To each well of a 96 black well plate, human VAP-1 purified in 50 mM sodium phosphate buffer solution (pH7.4) was added. The test compounds dissolved in DMSO were incubated with the human VAP-1 enzymes at 37° C. for 30 minutes. After 30-minute incubation, each well is added with a reaction mixture containing 200 uM Amplex Red reagent prepared from 50 mM sodium phosphate buffer solution (pH 7.4), 1 mM benzylamine, and 1 U/mL HRP. Fluorescence intensity was measured at several time points during 1-2 hours using a microplate reader (Flexstation3, Molecular Devices) under the wavelength condition exciting at 544 nm and reading the emission at 590 nm. The inhibitory effect of the compounds was measured as a decrease (%) in the signal rate as compared to the control group without any inhibitor (only diluted DMSO). Data was fixed to a logistic model with four variables and IC50 value was calculated using GraphPad Prism program.
In addition, the compounds according to the present technology were evaluated in terms of activity on a recombinant human MAO-A (monoamine oxidase-A, Sigma-Aldrich) and a recombinant human MAO-B (monoamine oxidase-B, Sigma-Aldrich) by using as substrates, 0.5 mM tyramine and 1 mM benzylamine, respectively, with a method similar to the activity evaluation method for recombinant human VAP-1. The compounds according to the present technology were also evaluated in terms of activity on a recombinant human DAO (diamine oxidase, R&D systems) by using as a substrate 1 mM putrescine with a method similar to the activity evaluation method for recombinant human VAP-1.

Counter-ions that a name gives are not always drawn. A value given as a limit tells only on which side of the number the result lay.

`Cn1cc(-c2ccc(Cn3cnn(C/C(=C/F)CN)c3=O)s2)cn1` [Example 142, 2-[(2E)-2-(aminomethyl)-3-fluoroprop-2-en-1-yl]-4-{[5-(1-methyl-1H-pyrazol-4-yl)thiophen-2-yl]methyl}-2,4-dihydro-3H-1,2,4-triazol-3-one]: the IC50 in experiment [1] is 11000 nM; on recombinant human VAP-1 it was 2.9 nM; in experiment [2] it was greater than 100000 nM; in experiment [3] it was 1000 nM.
For `NC/C(=C\F)Cn1ncn(Cc2ccc(/C=C/c3ccc(C(F)(F)F)cc3)s2)c1=O` [Example 119, 2-[(E)-2-(aminomethyl)-3-fluoro-allyl]-4-[[5-[(E)-2-[4-(trifluoromethyl)phenyl]vinyl]-2-thienyl]methyl]-1,2,4-triazol-3-one hydrochloride], the IC50 in experiment [1] was 860 nM; on recombinant human VAP-1 it was 1.8 nM; in experiment [2], greater than 100000 nM; in experiment [3] it was 1200 nM.
With `CN1C(=O)COc2ncc(-c3ccc(Cn4cnn(C/C(=C/F)CN)c4=O)s3)cc21` [Example 150, 7-[5-({1-[(2E)-2-(aminomethyl)-3-fluoroprop-2-en-1-yl]-5-oxo-1,5-dihydro-4H-1,2,4-triazol-4-yl}methyl)thiophen-2-yl]-1-methyl-1H-pyrido[2,3-b][1,4]oxazin-2(3H)-one], the IC50 is 190 nM in experiment [1], 0.8 nM at recombinant human VAP-1, greater than 100000 nM in experiment [2] and 26000 nM in experiment [3].
On the same counts, the results for `CNc1ncc2cc(-c3ccc(Cn4cnn(C/C(=C/F)CN)c4=O)s3)ccc2n1` [Example 112, 2-[(2E)-2-(aminomethyl)-3-fluoroprop-2-en-1-yl]-4-(5-[2-(methylamino)quinazolin-6-yl]thiophen-2-ylmethyl)-2,4-dihydro-3H-1,2,4-triazol-3-one hydrochloride] are 310 nM, 0.9 nM, greater than 100000 nM and 950 nM.
On the same counts, the results for `NC/C(=C\F)Cn1ncn(Cc2ccc(/C=C/c3ccsc3)s2)c1=O` [Example 121, 2-[(E)-2-(aminomethyl)-3-fluoro-allyl]-4-[[5-[(E)-2-(3-thienyl)vinyl]-2-thienyl]methyl]-1,2,4-triazol-3-one hydrochloride] are 1800 nM, 1.2 nM, greater than 100000 nM and 290 nM.
On to `CN(C)c1ncc(-c2ccc(Cn3cnn(C/C(=C/F)CN)c3=O)s2)cn1` [Example 55, 2-[(2E)-2-(aminomethyl)-3-fluoroprop-2-en-1-yl]-4-(5-[2-(dimethylamino)pyrimidin-5-yl]thiophen-2-ylmethyl)-2,4-dihydro-3H-1,2,4-triazol-3-one hydrochloride], for which the IC50 was 180 nM in experiment [1], 0.5 nM on recombinant human VAP-1, greater than 100000 nM in experiment [2] and 6400 nM in experiment [3].
The corresponding values for `NC/C(=C\F)Cn1ncn(Cc2ccc(-c3cnc4c(c3)COC(=O)N4)s2)c1=O` [Example 149, 6-[5-({1-[(2E)-2-(aminomethyl)-3-fluoroprop-2-en-1-yl]-5-oxo-1,5-dihydro-4H-1,2,4-triazol-4-yl}methyl)thiophen-2-yl]-1,4-dihydro-2H-pyrido[2,3-d][1,3]oxazin-2-one] are 470 nM, 0.4 nM, greater than 100000 nM and 4500 nM.
